Experimental data reported in ChEMBL document CHEMBL1142948, “Somatostatin receptor-binding peptides suitable for tumor radiotherapy with Re-188 or Re-186. Chemistry and initial biological studies” (J Med Chem, 2007).

Biological target: Somatostatin receptor
Experiment: Displacement of [125I]SRIF-14 from SSTR of rat AR42J cell membranes
Design: species or system Membrane
Conditions: ar-42j

| SMILES | IC50 |
| --- | --- |
| CC(C)[C@@H]1NC(=O)[C@H](CCCCN)NC(=O)[C@H](Cc2c[nH]c3ccccc23)NC(=O)[C@H](Cc2ccc(O)cc2)NC(=O)[C@@H](CCS)N(C)C(=O)[C@H](Cc2ccccc2)NC1=O | 0.7 nM |
| C[C@@H](O)[C@@H]1NC(=O)[C@H](CCCCN)NC(=O)[C@H](Cc2c[nH]c3ccccc23)NC(=O)[C@H](Cc2ccc(O)cc2)NC(=O)[C@@H](Cc2ccccc2)N(C)C(=O)[C@H](CCS)NC1=O | 0.4 nM |
| CC(C)[C@@H]1NC(=O)[C@H](CCCCN)NC(=O)[C@H](Cc2c[nH]c3ccccc23)NC(=O)[C@H](Cc2ccc(O)cc2)NC(=O)[C@@H](Cc2ccccc2)N(C)C(=O)[C@H](CCS)NC1=O | 1.5 nM |
| C[C@@H](O)[C@@H]1NC(=O)[C@H](CCCCN)NC(=O)[C@H](Cc2c[nH]c3ccccc23)NC(=O)[C@H](Cc2ccc(O)cc2)NC(=O)[C@@H](CCS)N(C)C(=O)[C@H](Cc2ccccc2)NC1=O | 0.1 nM |
| C[C@@H](O)[C@@H]1NC(=O)[C@H](CCCCN)NC(=O)[C@H](Cc2c[nH]c3ccccc23)NC(=O)[C@H](Cc2ccc(O)cc2)NC(=O)[C@@H](CCS)NC(=O)[C@H](Cc2ccccc2)N(C)C1=O | 23.7 nM |

Biological target: Somatostatin receptor
Experiment: Displacement of [125I-Tyr-11]-SRIF from SSTR of human NCI-H69 cell membranes
Conditions: not given

| SMILES | IC50 |
| --- | --- |
| C[C@@H](O)[C@H](NC(=O)CSCC[C@H]1C(=O)N[C@@H](Cc2ccc(O)cc2)C(=O)N[C@H](Cc2c[nH]c3ccccc23)C(=O)N[C@@H](CCCCN)C(=O)N[C@@H]([C@@H](C)O)C(=O)N[C@@H](Cc2ccccc2)C(=O)N1C)C(=O)NCC(=O)NCC(=O)N[C@@H](CS)C(N)=O | 1.6 nM |
| C[C@@H](O)[C@H](NC(=O)[C@H](CS)NC(=O)[C@H](Cc1ccc(N)cc1)NC(=O)[C@@H](N)CNC(=O)CSCC[C@H]1C(=O)N[C@@H](Cc2ccc(O)cc2)C(=O)N[C@H](Cc2c[nH]c3ccccc23)C(=O)N[C@@H](CCCCN)C(=O)N[C@@H]([C@@H](C)O)C(=O)N[C@@H](Cc2ccccc2)C(=O)N1C)C(=O)O | 0.64 nM |
| C[C@@H](O)[C@@H]1NC(=O)[C@H](CCCCN)NC(=O)[C@@H](Cc2c[nH]c3ccccc23)NC(=O)[C@H](Cc2ccc(O)cc2)NC(=O)[C@H](CCSCC(=O)NC[C@H](N)C(=O)N[C@@H](CCCCN)C(=O)N[C@@H](CS)C(=O)N[C@H](CO)[C@@H](C)O)N(C)C(=O)[C@H](Cc2ccccc2)NC1=O | 0.35 nM |
| C[C@@H](O)[C@@H]1NC(=O)[C@H](CCCCN)NC(=O)[C@@H](Cc2c[nH]c3ccccc23)NC(=O)[C@H](Cc2ccc(O)cc2)NC(=O)[C@H](CCSCC(=O)NC[C@H](N)C(=O)N[C@@H](CO)C(=O)N[C@@H](CS)C(=O)N[C@H](CO)[C@@H](C)O)N(C)C(=O)[C@H](Cc2ccccc2)NC1=O | 1.6 nM |
| C[C@@H](O)[C@H](NC(=O)[C@H](CS)NC(=O)[C@H](Cc1ccc(N)cc1)NC(=O)[C@@H](N)CNC(=O)CSCC[C@H]1C(=O)N[C@@H](Cc2ccc(O)cc2)C(=O)N[C@H](Cc2c[nH]c3ccccc23)C(=O)N[C@@H](CCCCN)C(=O)N[C@@H]([C@@H](C)O)C(=O)N[C@@H](Cc2ccccc2)C(=O)N1C)C(=O)N[C@@H](CO)C(=O)O | 0.2 nM |
| C[C@@H](O)[C@@H]1NC(=O)[C@H](CCCCN)NC(=O)[C@@H](Cc2c[nH]c3ccccc23)NC(=O)[C@H](Cc2ccc(O)cc2)NC(=O)[C@H](CCSCC(=O)NC[C@H](N)C(=O)N[C@@H](Cc2ccc(N)cc2)C(=O)N[C@@H](CS)C(=O)N[C@H](CO)[C@@H](C)O)N(C)C(=O)[C@H](Cc2ccccc2)NC1=O | 0.5 nM |
